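Results reflect a 48-hour exposure of cells in 96-well plates to compound at five concentrations. At the GI50, growth is halved. TGI denotes the concentration required for complete inhibition of growth.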
What was measured:
Experiment in all cases: DTP human tumour cell line panel, 48 h
[1] = test system: ACHN renal
[2] = test system: HOP-92 NSCLC
[3] = test system: MCF7 breast
[4] = test system: BT-549 breast
[5] = test system: NCI-H460 lung
[6] = test system: TK-10 renal
[7] = test system: A498 renal
[8] = test system: SK-MEL-28 melanoma
[9] = test system: MOLT-4 leukemia
[10] = test system: RXF 393 renal
[11] = test system: SN12C renal
[12] = test system: HCT-116 colon
[13] = test system: LOX IMVI melanoma
[14] = test system: OVCAR-4 ovarian
[15] = test system: NCI-H522 lung
[16] = test system: MDA-MB-435
[17] = test system: A549 NSCLC
[18] = test system: MALME-3M melanoma
[19] = test system: CCRF-CEM leukemia
[20] = test system: OVCAR-8 ovarian
[21] = test system: NCI/ADR-RES ovarian
[22] = test system: T-47D breast
[23] = test system: OVCAR-3 ovarian
[24] = test system: 786-0 renal
[25] = test system: SW-620 colon
[26] = test system: OVCAR-5 ovarian
[27] = test system: EKVX NSCLC
[28] = test system: SF-539 CNS
[29] = test system: NCI-H226 lung

## CC(C)[C@H]1CC[C@H]2[C@@H](CC[C@H]3[C@](C)(CN)CCC[C@]23C)C1
[1]
  TGI: 6.44 µM
[2]
  GI50: 1.22 µM
  TGI: 8.12 µM
[3]
  GI50: 1.51 µM
  TGI: 2.85 µM
[4]
  GI50: 15.6 µM
  TGI: 37.5 µM
[5]
  GI50: 1.68 µM
  TGI: 3.31 µM
[6]
  GI50: 2.19 µM
  TGI: 7.9 µM
[7]
  GI50: 13.2 µM
  TGI: 27 µM
[8]
  GI50: 16.8 µM
  TGI: 30.8 µM
[9]
  GI50: 2.21 µM
  TGI: 5.2 µM
[10]
  GI50: 2 µM
  TGI: 3.84 µM
[11]
  GI50: 1.75 µM
  TGI: 3.65 µM
[12]
  GI50: 1.72 µM
  TGI: 3.09 µM
[13]
  GI50: 1.61 µM
  TGI: 2.98 µM
[14]
  GI50: 4.36 µM
  TGI: 20.3 µM
[15]
  GI50: 1.91 µM
  TGI: 3.82 µM
[16]
  GI50: 2.13 µM
  TGI: 4.69 µM
[17]
  GI50: 2.18 µM
  TGI: 4.23 µM
[18]
  GI50: 2.48 µM
  TGI: 7.47 µM
[19]
  GI50: 3.42 µM
  TGI: 12.8 µM
[20]
  GI50: 2.61 µM
  TGI: 5.62 µM
[21]
  GI50: 2.08 µM
  TGI: 3.93 µM
[22]
  GI50: 1.96 µM
  TGI: 4.52 µM
[23]
  GI50: 1.96 µM
  TGI: 3.84 µM
[24]
  GI50: 1.82 µM
  TGI: 3.24 µM
[25]
  GI50: 1.84 µM
  TGI: 3.49 µM
[26]
  GI50: 1.73 µM
  TGI: 3.44 µM
[27]
  GI50: 4.11 µM
  TGI: 17 µM
[28]
  GI50: 1.59 µM
  TGI: 2.95 µM
[29]
  GI50: 4.99 µM
  TGI: 23.5 µM
